# In patent US11253500B2, “Sanfetrinem or a salt or ester thereof for use in treating mycobacterial infection” (priority 2017, dated 2022):
# “And” between values parts separate entries of the source, which are not always exact repeats. Identical values can stand only once. Counter-ions that a name gives are not always drawn. Like-named read-outs stand apart in the source and are kept apart here.
# Columns and labels:
# [1] = test system: Mtb H37Rv strain; assay: Checkerboard assay with rifampicin, ethambutol, delamanid and amoxicillin (384-well, MTT or ATP); format: cell-based, Mycobacterium tuberculosis; conditions: for FIC_B / MICsyn_B: Comp B in the presence of SFT; for Fold_B: MIC/MICsyn of Comp B with SFT; for MIC: Mycobacterium tuberculosis, H37RV, Comp B alone (IC90)
# [2] = test system: M. tuberculosis H37Rv; assay: Checkerboard combination with amoxicillin and/or clavulanate (resazurin); format: cell-based, Mycobacterium tuberculosis
# [3] = test system: Mycobacterium tuberculosis growing inside human THP-1 monocytes; assay: Intracellular viability assay (luciferase Mtb in THP-1 monocytes); format: cell-based
# [4] = test system: M. tuberculosis H37Rv; assay: MIC determination (extracellular, resazurin); format: cell-based, Mycobacterium tuberculosis
# [5] = test system: M. tuberculosis H37Rv; assay: In vivo anti-tubercular activity in DHP-1 KO mice; design: species or system Mycobacterium tuberculosis; conditions: 129sv DHP-1 KO mice; for Lung CFU: intratracheal infection, twice a day from day 9 to day 14, lungs day 15, mean, untreated 7.4 (Day 9), 9.0 (Day 15); for Effect on bacterial growth in lung: treated day 9 to day 14
# [6] = test system: panel of twenty-three M. tuberculosis strains; assay: microbe, parasite or virus in culture; format: cell-based, Mycobacterium tuberculosis; conditions: for MIC: Mycobacterium tuberculosis
# [7] = Mycobacterium tuberculosis, H37RV
# [8] = Mycobacterium tuberculosis, w/o clav, average, read-out: MIC50 μM (average w/o clav)
# [9] = Mycobacterium tuberculosis, w/o clav, average, read-out: MIC90 μM (average w/o clav)
# [10] = Mycobacterium tuberculosis, with clav, average, read-out: MIC50 μM (average with clav)
# [11] = Mycobacterium tuberculosis, with clav, average, read-out: MIC90 μM (average with clav)
# [12] = Mycobacterium tuberculosis, H37RV, extracellular, with 4 μg/ml potassium clavulanate, average, read-out: MIC μM (average with clav)
# [13] = Mycobacterium tuberculosis, H37RV, extracellular, with 4 μg/ml potassium clavulanate, separate readings, read-out: MIC μM (with clav)
# [14] = Mycobacterium tuberculosis, H37RV, extracellular, without clavulanate, average, read-out: MIC μM (average w/o clav)
# [15] = Mycobacterium tuberculosis, H37RV, extracellular, without clavulanate, separate readings, read-out: MIC μM (w/o clav)
# [16] = Mycobacterium tuberculosis, w/o clav, separate readings, read-out: MIC50 μM (w/o clav)
# [17] = Mycobacterium tuberculosis, w/o clav, separate readings, read-out: MIC90 μM (w/o clav)
# [18] = Mycobacterium tuberculosis, with clav, separate readings, read-out: MIC50 μM (with clav)
# [19] = Mycobacterium tuberculosis, with clav, separate readings, read-out: MIC90 μM (with clav)
# [20] = w/o clav, separate readings, read-out: MIC50 μM (w/o clav)
# [21] = w/o clav, separate readings, read-out: MIC90 μM (w/o clav)
# [22] = with clav, separate readings, read-out: MIC50 μM (with clav)
# [23] = with clav, separate readings, read-out: MIC90 μM (with clav)
structure (smiles),measurement,setting,value
"C[C@]1(COc2ccc(N3CCC(Oc4ccc(OC(F)(F)F)cc4)CC3)cc2)Cn2cc([N+](=O)[O-])nc2O1 [DLD, Delamanid]",FIC_B,[1],0.25
same,MICsyn_B,[1],0.0025 µM
same,Fold_B,[1],4
same,MIC,[1],0.01 µM
CC1(C)S[C@@H]2[C@H](NC(=O)[C@H](N)c3ccc(O)cc3)C(=O)N2[C@H]1C(=O)O [amoxicillin],MICsyn_B,[1],8 µM
same,MIC,[1],128 µM
same,IC80,[2]; [7],42 µg/mL
same,Reaching 90% Inhibition,[2]; amoxicillin in monotherapy,does not reach a 90% Inhibition
same,Reaching 90% growth inhibition,[2]; in combination with clavulanate,nor in combination with clavulanate reach the 90% growth inhibition
C[C@@H](O)[C@H]1C(=O)N2C(C(=O)O)=C(SC3CN(C4=NCCS4)C3)[C@H](C)[C@H]12 [Tebipenem],MIC50,[3]; [8],4.51 µM
same,MIC90,[3]; [9],46.5 µM
same,MIC50,[3]; [10],0.49 µM
same,MIC90,[3]; [11],3.61 µM
same,MIC,[4]; [12],1.25 µM
same,MIC,[4]; [13],1.25 µM
same,MIC,[4]; [14],7.5 µM
same,MIC,[4]; [15],7.5 µM
"O=C(O)[C@H]1/C(=C/CO)O[C@@H]2CC(=O)N21 [clavulanate, Potassium clavulanate]",Activity alone,[2]; alone,not active
C[C@@H](O)[C@H]1C(=O)N2C(C(=O)O)=C(S[C@@H]3CN[C@H](C(=O)N(C)C)C3)[C@H](C)[C@H]12 [Meropenem],MIC50,[3]; [8],6.78 µM
same,MIC90,[3]; [9],17 µM
same,MIC50,[3]; [16],8.97 µM
same,MIC90,[3]; [17],19.6 µM
same,MIC50,[3]; [10],1.94 µM
same,MIC90,[3]; [11],5.55 µM
same,MIC50,[3]; [18],2.03 µM
same,MIC90,[3]; [19],5.39 µM
same,MIC50,[3]; [20],4.6 µM
same,MIC90,[3]; [21],14.41 µM
same,MIC50,[3]; [22],1.85 µM
same,MIC90,[3]; [23],5.71 µM
same,MIC,[4]; [12],6.9 µM
same,MIC,[4]; [14],31.7 µM
"CO[C@H]1/C=C/O[C@@]2(C)Oc3c(C)c(O)c4c(O)c(c(/C=N/N5CCN(C)CC5)c(O)c4c3C2=O)NC(=O)/C(C)=C\C=C\[C@H](C)[C@H](O)[C@@H](C)[C@@H](O)[C@@H](C)[C@H](OC(C)=O)[C@@H]1C [RIF, Rifampicin]",MICsyn_B,[1],0.005 µM
same,MIC,[1],0.04 µM
"CC[C@@H](CO)NCCN[C@@H](CC)CO [EMB, Ethambutol]",FIC_B,[1],0.25
same,MICsyn_B,[1],2 µM
same,Fold_B,[1],4
same,MIC,[1],8 µM
"CO[C@H]1CCC[C@H]2C1=C(C(=O)OC(C)OC(=O)OC1CCCCC1)N1C(=O)[C@H]([C@@H](C)O)[C@@H]21 (mixture of isomers) [Sanfetrinem cilexetil, (1S,5S,8aS,8bR)-1-(((cyclohexyloxy)carbonyl)oxy)ethyl 1-((R)-1-hydroxyethyl)-5-methoxy-2-oxo-1,2,5,6,7,8,8a,8b-octahydroazeto[2,1-a]isoindole-4-carboxylate]",Lung CFU,[5],7.6 log CFU
same,Effect on bacterial growth in lung,[5],preventing bacterial growth
same,MIC50,[3]; [8],0.85 µM
same,MIC90,[3]; [9],5.2 µM
same,MIC50,[3]; [10],0.6 µM
same,MIC90,[3]; [11],5 µM
same,MIC90,[3]; [19],4.6 µM
same,MIC90,[3]; [23],5.3 µM
same,MIC,[4]; [12],8.6 µM
same,MIC,[4]; [14],10.6 µM
"CO[C@H]1CCC[C@H]2C1=C(C(=O)O)N1C(=O)[C@H]([C@@H](C)O)[C@@H]21 [Sanfetrinem (sodium salt), sodium (1S,5S,8aS,8bR)-1-((R)-1-hydroxyethyl)-5-methoxy-2-oxo-1,2,5,6,7,8,8a,8b-octahydroazeto[2,1-a]isoindole-4-carboxylate]",Lung CFU,[5],7.3 log CFU
same,Effect on bacterial growth in lung,[5],preventing bacterial growth
same,Sensitivity of all strains within the concentration range tested,"[6]; MGIT 960, 23 strains, 0.5 to 20 μM",sensitive
same,MIC,"[6]; read-out: MIC, another four strains higher",> 5 µM
same,MIC,"[6]; read-out: MIC, four strains lower",< 5 µM
same,MIC,"[6]; read-out: MIC, most common value",5 µM
same,Fold_A,[1]; MIC/MICsyn of SFT with AMX,8
same,Fold_A,[1]; MIC/MICsyn of SFT with DLD,4
same,Fold_A,[1]; MIC/MICsyn of SFT with EMB,4
same,Fold_A,[1]; MIC/MICsyn of SFT with RIF,8
same,FIC_A,[1]; SFT in the presence of AMX,0.125
same,MICsyn_A,[1]; SFT in the presence of AMX,0.5 µM
same,FIC_A,[1]; SFT in the presence of DLD,0.25
same,MICsyn_A,[1]; SFT in the presence of DLD,0.4 µM
same,FIC_A,[1]; SFT in the presence of EMB,0.25
same,MICsyn_A,[1]; SFT in the presence of EMB,0.4 µM
same,FIC_A,[1]; SFT in the presence of RIF,0.125
same,MICsyn_A,[1]; SFT in the presence of RIF,0.4 µM
same,FICI,[1]; combination SFT with AMX,0.1875
same,FICI,[1]; combination SFT with DLD,0.5
same,FICI,[1]; combination SFT with EMB,0.5
same,FICI,[1]; combination SFT with RIF,0.25
same,MIC50,[3]; [8],1.65 µM
same,MIC90,[3]; [9],5.57 µM
same,MIC50,[3]; [16],1.32 µM
same,MIC50,[3]; [10],1.64 µM
same,MIC90,[3]; [11],7.25 µM
same,MIC90,[3]; [19],6.13 µM
same,MIC50,[3]; [20],1.64 µM and 2 µM
same,MIC90,[3]; [23],6.8 µM and 8.82 µM
same,MIC,"[4]; Mycobacterium tuberculosis, H37RV, read-out: MIC μM (average w/o clav), extracellular, without clavulanate, average",5 µM
same,MIC,"[4]; Mycobacterium tuberculosis, H37RV, read-out: MIC μM (average with clav), extracellular, with 4 μg/ml potassium clavulanate, average",2.9 µM
same,IC90,[2]; [7],1.22 µg/mL
same,IC90,"[2]; Mycobacterium tuberculosis, H37RV, read-out: IC90 of sanfetrinem in combination with amoxicillin (at 10 μg/ml)",0.33 µg/mL
same,IC90,"[2]; Mycobacterium tuberculosis, H37RV, read-out: IC90 of sanfetrinem in combination with clavulanate",0.55 µg/mL
C[C@@H](O)[C@H]1C(=O)N2C(C(=O)O)=C(S[C@@H]3CN[C@H](C(=O)Nc4cccc(C(=O)O)c4)C3)[C@H](C)[C@H]12 [Ertapenem],MIC50,[3]; [8],29.6 µM
same,MIC90,[3]; [9],> 50 µM
same,MIC50,[3]; [10],3.84 µM
same,MIC90,[3]; [11],21 µM
same,MIC,[4]; [12],16.7 µM
same,MIC,[4]; [13],10 µM
same,MIC,[4]; [14],> 80 µM
same,MIC,[4]; [15],80 µM
same,MIC,"[4]; extracellular, with 4 μg/ml potassium clavulanate, separate readings, read-out: MIC μM (with clav)",20 µM
C[C@@H](O)[C@H]1C(=O)N2C(C(=O)O)=C([C@H]3CCCO3)S[C@H]12 [Faropenem],MIC50,[3]; [8],1.85 µM
same,MIC90,[3]; [9],12.3 µM
same,MIC50,[3]; [16],2.2 µM
same,MIC90,[3]; [17],14.7 µM
same,MIC50,[3]; [10],1.1 µM
same,MIC90,[3]; [11],5.75 µM
same,MIC50,[3]; [18],1 µM
same,MIC90,[3]; [19],6.8 µM
same,MIC50,[3]; [20],1.5 µM
same,MIC90,[3]; [21],10.0 µM
same,MIC50,[3]; [22],1.2 µM
same,MIC90,[3]; [23],4.7 µM
same,MIC,[4]; [12],8.9 µM
same,MIC,[4]; [14],15.7 µM
